In publication PMC8403366, “Functional significance of gain-of-function H19 lncRNA in skeletal muscle differentiation and anti-obesity effects” (Genome Medicine, 2021):

What was measured:
[1] = system: interaction between H19 and DMD; experiment: RIP assay in iPSC-SkMC; type: cell-based, human; conditions: for interaction between H19 and DMD: iPSC-SkMC from healthy donor 09503 or BMD patient 02298; for interaction between HuR and Actin: specificity control
MRCKα = conditions: cited from earlier work
From the text: (§1) SNCA plays important roles in Parkinson’s disease through mediating the aggregation of protofibrils. […] MRCKα is a se ...

iPSC-SkMC = experiment: Immunoblot of DMD, phosphorylated DMD and Ub-DMD in iPSC-SkMC; type: cell-based, human; conditions: for DMD phosphorylation / DMD protein levels / Ub-DMD: BMD iPSC-SkMC
From the text: The human skin fibroblasts GM09503 (healthy donor), GM02298 (BMD patient), or GM04569 (BMD patient) were obtained from the Coriell Institute and reprogramed to iPSC by Baylor Human Stem Cell Core. Clinical information is summarized in Additional file 2: Table S2. iPSCs from patients with BMD were used to study the potential molecular mechanisms of DMD stability within pathological context. iPSCs were maintained in feeder-free conditions using the mTeSR™1 medium (Stemcell technologies) on hESC-Qualified Matrigel (Corning) coated plates at 37 °C with 5% CO2. H19 knockout iPSC cell lines were generated using the CRISPR-Cas9 genome editing system, as described previously. iPSCs transfected with sgRNAs were selected with puromycin (250 ng/ml) for 7 days. Emerging iPSC colonies were picked individually and further expanded in mTeSR™1 medium. The presence of targeted gene knockout was confirmed by further genotyping characterization and PCR product sequencing.
For myogenic differentiation, iPSCs were differentiated into skeletal muscle cells using Skeletal Muscle Differentiation Kit (Genea Biocells) according to the manufacturer’s protocol. Briefly, iPSCs were plated onto a collagen I coated plate and maintained for 6–10 days in Skeletal Muscle Induction Medium (Genea Biocells) until confluent. Dissociated myogenic precursors were then plated on a collagen I coated plate and cultured in Skeletal Myoblast Medium (Genea Biocells) for 6–8 days. When confluent, cells were maintained in Myotube Medium or Myotube Fusion Medium (Genea Biocells). Cryopreserved stocks of myoblasts Genea002 were obtained from Genea Biocells. Genea002 was initially maintained in Skeletal Myoblast Medium and changed to Myotube Medium or Myotube Fusion Medium when confluent.

[2] = biological target: T1, DMD C-terminus (ZnF domain) WT (human, UniProt P11532 3046-3685); experiment: alpha assay saturation; conditions: EMSA and RNA-protein binding: 50 mM Tris-HCl pH 7.9, 10% glycerol, 100 mM KCl, 5 mM MgCl2, 10 mM beta-ME, 0.1% NP-40, 30 C, 30 min (EMSA) or 1 h (dot blot) …
T1 sequence (P11532 3046-3685): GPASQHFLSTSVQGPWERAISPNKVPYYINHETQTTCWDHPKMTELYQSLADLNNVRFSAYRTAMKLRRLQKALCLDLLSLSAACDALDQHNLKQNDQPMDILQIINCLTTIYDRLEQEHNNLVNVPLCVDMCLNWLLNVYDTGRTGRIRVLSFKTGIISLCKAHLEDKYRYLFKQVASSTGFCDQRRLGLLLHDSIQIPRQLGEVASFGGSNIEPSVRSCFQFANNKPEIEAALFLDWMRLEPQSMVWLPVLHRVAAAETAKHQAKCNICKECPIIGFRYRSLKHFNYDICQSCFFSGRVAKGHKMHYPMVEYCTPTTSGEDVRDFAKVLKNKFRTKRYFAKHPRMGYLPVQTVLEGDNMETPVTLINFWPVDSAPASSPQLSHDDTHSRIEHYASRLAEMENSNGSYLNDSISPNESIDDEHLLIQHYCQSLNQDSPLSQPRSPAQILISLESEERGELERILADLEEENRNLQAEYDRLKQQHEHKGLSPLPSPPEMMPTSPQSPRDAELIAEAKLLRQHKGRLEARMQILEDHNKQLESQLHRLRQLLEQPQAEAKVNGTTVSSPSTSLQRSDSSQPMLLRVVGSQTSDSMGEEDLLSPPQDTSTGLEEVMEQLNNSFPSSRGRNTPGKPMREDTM

SNCA = conditions: cited from earlier work
From the text: as §1

[3] = biological target: T1, DMD C-terminus (ZnF domain) WT; experiment: alpha assay competition; conditions: EMSA and RNA-protein binding: 50 mM Tris-HCl pH 7.9, 10% glycerol, 100 mM KCl, 5 mM MgCl2, 10 mM beta-ME, 0.1% NP-40, 30 C, 30 min (EMSA) or 1 h (dot blot) …
C57BL/6 J mice = experiment: RT-qPCR of H19 and Dmd in TA of treated mice; type: in vivo, mouse; conditions: male mice, n = 5
Description: Total RNA was isolated from the snap-frozen samples using the RNeasy Plus Mini Kit (Qiagen). cDNA was synthesized from 1 μg of RNA using the iScript™ cDNA Synthesis Kit (Bio-Rad). Quantitative real-time PCR was performed using SsoAdvanced™ Universal SYBR® Green Supermix (Bio-Rad).

[4] = biological target: T1, DMD C-terminus (ZnF domain) WT; experiment: alpha assay competition; EMSA and RNA-protein binding: 50 mM Tris-HCl pH 7.9, 10% glycerol, 100 mM KCl, 5 mM MgCl2, 10 mM beta-ME, 0.1% NP-40, 30 C, 30 min (EMSA) or 1 h (dot blot); alpha assay conditions not in the material; conditions: protein: recombinant, tags: His, label: 32P (EMSA), single strand

Which “interaction between H19 and DMD” value [1] does the source give for `O=C(Nc1cn[nH]c1-c1ccccn1)c1nn(C2CCNCC2)cc1Cl` [BDP5290] here?
The value was “significantly improved”.

What about the “interaction between HuR and Actin” value [1] of the same molecule?
Its value is “minimal effects”.

What about the IC50 (MRCKα) of the same molecule?
Its IC50 is 10 nM.

What about the DMD phosphorylation (iPSC-SkMC) of the same molecule?
Its DMD phosphorylation is “reduced”.

And the DMD protein levels (iPSC-SkMC)?
The DMD protein levels was “improved”.

What about the Ub-DMD (iPSC-SkMC) of the same molecule?
Its Ub-DMD is “reduced”.

Which Kd [2] does the source give for human H19 sense transcript here?
The Kd was 71.1 nM.

For mouse H19 sense transcript, which Kd [2] is on record?
The Kd was 78.6 nM.

For `N#Cc1c(C(F)(F)F)c([N+](=O)[O-])c(-c2cccc([N+](=O)[O-])c2)[nH]c1=O` [SC-D, SynuClean-D], which “interaction between H19 and DMD” value [1] is on record?
The value was “significantly improved”.

What about the “interaction between HuR and Actin” value [1] of the same molecule?
Its value is “minimal effects”.

What about the “SNCA aggregation in muscle tissues” value (SNCA) of the same molecule?
The value was “reduces”.

What about the DMD phosphorylation (iPSC-SkMC) of the same molecule?
The DMD phosphorylation was “reduced”.

And the DMD protein levels (iPSC-SkMC)?
Its DMD protein levels is “improved”.

And the Ub-DMD (iPSC-SkMC)?
The Ub-DMD was “reduced”.

What about the “phosphorylation of DMD” value (iPSC-SkMC; iPSC-SkMC with exogenous expression of SNCA) of the same molecule?
Its value is “attenuated”.

Which Kd [3] does the source give for H19-WT mimic here?
The Kd was 130 nM.

Which “expression of H19 in TA” value (C57BL/6 J mice) does the source give for “N-terminal-ELTNEIPAELTNEIPA-Linker-5'-[2'-F-U][2'-F-G][2'-F-G][2'-F-C][2'-F-C][2'-F-A][2'-F-A][2'-F-U][2'-F-G][2'-F-C][2'-F-C][2'-F-C][2'-F-U][2'-F-G][2'-F-G][2'-F-C][2'-F-U][2'-F-C][2'-F-A][2'-F-C][2'-F-A][2'-F-A][2'-F-A][2'-F-U][2'-F-A][2'-F-C][2'-F-C][2'-F-A][2'-F-C][2'-F-U]-3' [AGR-Scr, agrin peptide conjugated to scramble oligonucleotides; control, reference compound]” here?
The value was “minimal effects”.

And the “expression of the Dmd transcript in TA” value (C57BL/6 J mice)?
The value was “minimal effects”.

What does the source list for “N-terminal-ELTNEIPAELTNEIPA-Linker-5'-[2’-F-C][2’-F-U][2’-F-C][2’-F-U][2’-F-U][2’-F-A][2’-F-C][2’-F-A][2’-F-A][2’-F-U][2’-F-C][2’-F-U][2’-F-G][2’-F-A][2’-F-G][2’-F-C][2’-F-U][2’-F-U][2’-F-U][2’-F-C][2’-F-C][2’-F-A][2’-F-C][2’-F-A][2’-F-G][2’-F-U][2’-F-U][2’-F-U][2’-F-C][2’-F-C]-3' [AGR-H19-Rlof, agrin peptide conjugated to H19 RNA loss-of-function mimic]”?
expression of H19 in TA (C57BL/6 J mice): minimal effects; expression of the Dmd transcript in TA (C57BL/6 J mice): minimal effects

With CUUUAUUUCUGAGCUUUCCUAUCUUUCCUU (ssRNA) [hH19 1951-1980 Rgof (G1955A/G1971A)] as the molecule, how does the Kd [4] read?
Its Kd is 14.9 nM.

Which Kd ([4]; biotin or unlabeled (alpha assay)) does the source give for CUUUGUUUCUGAGCUUUCCUGUCUUUCCUU (ssRNA) [hH19 1951-1980 WT] here?
The Kd was 116 nM.
